“And” between values parts separate entries of the source, which are not always exact repeats. Equal values may be shown once.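 Cells were grown in 96-well plates and exposed to each compound for 48 hours at five concentrations; endpoints were interpolated linearly between bracketing concentrations, or set to the highest concentration if not reached. GI50 is the concentration that inhibits growth by half. TGI marks complete inhibition of growth.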
Legend:
Experiment in all cases: growth of human tumour cells (NCI), 48 h
NCI-H23 lung = test system: NCI-H23 lung
SK-MEL-2 melanoma = test system: SK-MEL-2 melanoma
HOP-62 NSCLC = test system: HOP-62 NSCLC
K-562 leukemia = test system: K-562 leukemia
HOP-92 NSCLC = test system: HOP-92 NSCLC
UO-31 renal = test system: UO-31 renal
CCRF-CEM leukemia = test system: CCRF-CEM leukemia
DU-145 prostate = test system: DU-145 prostate
MCF7 breast = test system: MCF7 breast
SF-295 CNS = test system: SF-295 CNS

Row | Compound | TGI (NCI-H23 lung) | TGI (SK-MEL-2 melanoma) | TGI (HOP-62 NSCLC) | TGI (K-562 leukemia) | TGI (HOP-92 NSCLC) | TGI (UO-31 renal) | TGI (CCRF-CEM leukemia) | TGI (DU-145 prostate) | TGI (MCF7 breast) | TGI (SF-295 CNS) | GI50 (NCI-H23 lung) | GI50 (HOP-62 NSCLC) | GI50 (K-562 leukemia) | GI50 (HOP-92 NSCLC) | GI50 (UO-31 renal) | GI50 (CCRF-CEM leukemia) | GI50 (DU-145 prostate) | GI50 (SK-MEL-2 melanoma) | GI50 (MCF7 breast) | GI50 (SF-295 CNS)
1 | CCC1(O)CC(OC2CC(N(C)C)C(OC3CC(O)C(OC4CCC(=O)C(C)O4)C(C)O3)C(C)O2)c2c(O)c3c(c(O)c2C1C(=O)OC)C(=O)c1cccc(O)c1C3=O (stereo unspecified) | 0.112 µM and 0.031 µM | 0.0247 µM | 0.138 µM and 0.119 µM | 0.0125 µM | 0.763 µM and 2.17 µM | 0.0292 µM | 0.0328 µM | 0.124 µM | 1.02 µM | 0.121 µM and 0.33 µM |  |  |  |  |  |  |  |  |  | 
2 | Cc1sc2nc3n(c(=O)c2c1C)N=C(c1ccc([N+](=O)[O-])cc1)CS3 | > 100 µM |  | > 100 µM | > 100 µM | > 100 µM | > 100 µM | > 100 µM | > 100 µM | > 100 µM | > 100 µM |  |  |  |  |  |  |  |  |  | 
3 | C#CCCCC(=O)N(C(=O)CS(=O)CC)c1ccccc1 (stereo unspecified) | > 100 µM | > 100 µM | > 100 µM | > 100 µM | > 100 µM | > 100 µM | > 100 µM | > 100 µM | > 100 µM | > 100 µM |  |  |  |  |  |  |  |  |  | 
4 | C/C=C1\CC(C(=O)OCC)CCCCCCCCCCC1=O (stereo unspecified) | > 100 µM | > 100 µM | > 100 µM |  |  | > 100 µM | > 100 µM | > 100 µM | > 100 µM | > 100 µM |  |  |  |  |  |  |  |  |  | 
5 | Cc1cccc(NC2=NCCO2)c1Cl | > 100 µM |  | > 100 µM | > 100 µM | > 100 µM | > 100 µM | > 100 µM | > 100 µM | > 100 µM | > 100 µM |  |  |  |  |  |  |  |  |  | 
6 | C[N+](C)([O-])CCCNc1ccnc2cccc([N+](=O)[O-])c12 | > 100 µM | 45.8 µM | > 100 µM | > 100 µM |  | > 100 µM | > 100 µM | 44.1 µM | > 100 µM | > 100 µM |  |  |  |  |  |  |  |  |  | 
7 | Cc1nc2c(=O)[nH]c3ccc(Cl)cc3c2o1 | > 100 µM | > 100 µM | > 100 µM | > 100 µM | > 100 µM | > 100 µM | > 100 µM |  | > 100 µM | > 100 µM |  |  |  |  |  |  |  |  |  | 
8 | CC1CC[C@@]2(OC1)OC1C[C@H]3[C@@H]4CCC5CC(O)CC[C@]5(C)[C@H]4C/C(=N\N(C)C)[C@]3(C)C1[C@@H]2C (stereo partly specified) | 42.6 µM | 45.6 µM | 54.7 µM | > 100 µM | > 100 µM | 90.4 µM | > 100 µM | 60.1 µM | > 100 µM |  |  |  |  |  |  |  |  |  |  | 
9 | COc1ccc(N2C(=O)C3CC4=CC(=O)C[C@H]4[C@H]32)cc1 (stereo partly specified) | > 100 µM | > 100 µM | > 100 µM | > 100 µM |  | > 100 µM |  | > 100 µM | > 100 µM | > 100 µM |  |  |  |  |  |  |  |  |  | 
10 | COC(=O)[C@H](CCSC)NC(=O)c1ccc(CNC(=O)/C(C)=C/c2ccccc2)cc1 | > 100 µM | 66.3 µM | 52.3 µM | > 100 µM | 72.2 µM | > 100 µM | > 100 µM | > 100 µM | > 100 µM | > 100 µM |  |  |  |  |  |  |  |  |  | 
11 | COc1ccc(C[C@@H]2OC3(C=CC(=O)C=C3)O[C@H]2Cc2ccc(OC)cc2)cc1 | 3.53 µM | 3.41 µM | 3.59 µM | > 100 µM | 1.82 µM | 0.379 µM | 0.521 µM | 5.32 µM | 5.68 µM | 7.89 µM |  |  |  |  |  |  |  |  |  | 
12 | O=S(=O)(/N=C(\NO)Nc1ccc(Cl)cc1)c1ccc(-c2ccccn2)s1 | > 100 µM | > 100 µM | > 100 µM | > 100 µM | > 100 µM | > 100 µM | > 100 µM | > 100 µM |  | > 100 µM |  |  |  |  |  |  |  |  |  | 
13 | CN(CCO)/N=N/c1[nH]ncc1C(N)=O | > 100 µM | > 100 µM |  | > 100 µM | > 100 µM | > 100 µM | > 100 µM |  | > 100 µM | > 100 µM |  |  |  |  |  |  |  |  |  | 
14 | c1ccc(CCn2cncn2)cc1 | > 100 µM |  | > 100 µM | > 100 µM | > 100 µM | > 100 µM | > 100 µM |  |  | > 100 µM |  |  |  |  |  |  |  |  |  | 
15 | Cc1ccc2c(=O)c(-c3n[nH]c(=S)s3)c[nH]c2n1 | > 100 µM | > 100 µM | > 100 µM | > 100 µM |  | > 100 µM | > 100 µM | > 100 µM | > 100 µM | > 100 µM |  |  |  |  |  |  |  |  |  | 
16 | c1ccc(C2[C@@H]3CCCc4ccccc4C3=NN2c2ccccc2)cc1 (stereo partly specified) | > 100 µM |  | > 100 µM | > 100 µM |  | > 100 µM | > 100 µM |  |  | > 100 µM |  |  |  |  |  |  |  |  |  | 
17 | CC1(C)c2ccccc2C(O)C12CCC(=O)CC2 (stereo unspecified) | > 100 µM | > 100 µM | > 100 µM | > 100 µM | > 100 µM | > 100 µM |  | > 100 µM |  | > 100 µM |  |  |  |  |  |  |  |  |  | 
18 | C=CC(Br)(CBr)CCC(Br)C(C)C (stereo unspecified) | 20.8 µM | 12.8 µM | 9.71 µM | 6.94 µM | 23.2 µM | 26.3 µM | 3.46 µM | 22.8 µM | 3.75 µM | 8.44 µM |  |  |  |  |  |  |  |  |  | 
19 | CC(=O)C1(O)Cc2c(O)c3c(c(O)c2C(OC2CC(N)C(O)C(C)O2)C1)C(=O)c1ccccc1C3=O (stereo unspecified) | 0.12 µM and 0.046 µM |  | 0.275 µM and 0.118 µM | 0.78 µM and 0.716 µM | 0.867 µM and 0.413 µM | 0.204 µM and < 0.0304 µM |  | 0.438 µM and 0.0587 µM | 1.5 µM | 0.388 µM and 0.0514 µM | < 12 nM | < 12.6 nM | < 10.9 nM | 0.0165 µM | < 0.0127 µM | 2.14 nM | < 10.4 nM |  |  | 
20 | Brc1cccc[n+]1-c1ccc2cc(-[n+]3ccccc3Br)ccc2c1 | > 100 µM | > 100 µM | 75.6 µM | > 100 µM |  | 38.5 µM | > 100 µM | 35.5 µM | > 100 µM | > 100 µM |  |  |  |  |  |  |  |  |  | 
21 | COc1cc2c(c(OC)c1OC)-c1ccc(SC)cc1C(=O)CC2 | > 100 µM | > 100 µM |  |  | > 100 µM |  | > 100 µM |  | > 100 µM | > 100 µM |  |  |  |  |  |  |  |  |  | 
22 | COc1ccc2[nH]c(O)c(/C=c3/cc4c(c(-c5ccc(F)cc5)n3)=Nc3ccccc3-4)c2c1 | 10.9 µM | 30.7 µM | 3.69 µM | 7.95 µM | 41.3 µM | 30.3 µM |  | 7.96 µM | 3.32 µM | 31.2 µM | 2580 nM | 1880 nM | 2450 nM | 13.6 µM | 15.5 µM |  | 2970 nM | 12.6 µM | 1360 nM | 10.5 µM

Reference: PubChem BioAssay (NCI)
